Measured values published in US7662361B2, “Methods and compositions for modulating drug activity through telomere damage” (priority 1999, dated 2010).

Tests used:
Assay type in all cases: cell-based, human
FaDu cells [1] = test: Cell detachment from the growth surface
Protocol: Upon drug treatment, the supernatant along with two subsequent Versene rinses, which contained the detached cells, were collected. […] These samples were centrifuged at 1500 rpm for 10 min and the resulting cell pellets were resuspended in 2 ml of culture media. The cell number in the detached and attached fractions were counted using a Coulter counter (Coulter Electronic, Inc., Hialeah, Fla.).
Treatment with the above agents was initiated after cells were allowed to attach to the growth surface in culture flasks. On the day of experiments, the culture medium was removed and replaced with drug-containing medium. […] For d4T, two concentrations, 20 μM and 40 μM were used.
Agent effect was measured in three ways, i.e., enumeration of the number of cells that remained attached in culture flask, enumeration of the number of cells that detached from the growth surface, and by measuring changes in apoptosis. […] The drug-induced detachment of cells from the growth surface was determined by counting the attached and detached cells.

[2] = test system: telomerase activity of FaDu cells; test: TRAP telomerase activity in drug-treated cells; conditions: cisplatin treatment, 48 to 96 hr
Protocol: For the preparation of cell and tissue extracts, cells and tissue were harvested, washed, and stored at −70° C. Cells were then lysed in a SDS-based lysis buffer (10 mM Tris.HCl, pH 7.5, 1 mM MgCl2, 1 mM EGTA, 0.1 mM phenylmethylsulfonyl fluoride, 5 mM β-mercaptoethanol, 0.1% CHAPS, and 10% glycerol), on ice for 10 min. To this mixture, three volumes of CHAPS-based buffer (10 mM Tris-HCl, pH 7.5, 1 mM MgCl2, 1 mM EGTA, 0.1 mM phenylmethylsulfonyl fluoride, 5 mM β-mercaptoethanol, 0.5% CHAPS, and 10% glycerol) were added and kept on ice for 5 min. […] For the extraction of tissues, tissues were homogenized in SDS-based lysis buffer with a Kontes pellet pestle (Fisher, Pittsburgh, Pa.), mixed with three volumes of CHAPS-based buffer, and centrifuged were centrifuged at 8,000 g for 15 min at 4° C. The supernatant was kept at −20° C. The protein concentration of the supernatant was determined using Bicinchoninic Acid Kit (Sigma, St Louis, Mo.). The protein concentration was adjusted to 0.5 μg/μl with CHAPS-based buffer. Samples with equal amounts of protein (1-2 μg) were analyzed by TRAP. […] The TRAP reaction mixture contained 2-4 μl of protein extract, 20 mM Tris.HCl (pH 8.3), 1.5 mM MgCl2, 63 mM KCl, 0.005% Tween-20, 1 mM EGTA, 50 μM dNTPs, 0.1 μg of TS primer, 0.1 mg/ml bovine serum albumin. The mixture was incubated at 30° C. for 30 min, then at 90° C. for 2 min.
This was accomplished by using phenol/chloroform extraction of the cell lysate, as follows. One μg of tRNA and 0.1 ng internal control template were added to the reaction solution after primer extension. The total volume of the mixture was brought to 100 μl with water, mixed with an equal volume of buffer saturated phenol (Life Technology) and then centrifuged at 18,000 g for 3 min, at room temperature. The top aqueous layer (90 μl) was carefully transferred to a new tube and mixed with an equal volume of chloroform:isoamyl alcohol (24:1) solution and centrifuged at 18,000 g for 3 min, at room temperature. The top aqueous layer (80 μl) was again transferred to a new tube and the nucleotides were precipitated with 0.2 volume of 3 M sodium acetate (pH 5.3) and 3 volume of 100% ethanol at −70° C. for at least 2 hr. The mixture was centrifuged at 18,000 g for 15 min at 4° C. […]
The template for the internal standard was amplified by PCR and purified by spin columns (QIAquick PCR purification kit, Qiagen, Valencia, Calif.). The concentration was determined by a spectrophotometer.
PCR was performed on the GeneAmp PCR system 2400 (Perkin Elmer) and initiated by 1 cycle at 94° C. for 3 min, 50° C. for 4 min, and 68° C. for 2 min, then 25 rounds at 94° C. for 30 sec, 50° C. for 30 sec, and 68° C. for 90 sec, followed by 68° C. for 10 min. […] The gel was then dried and the amplification products were detected. […]

FaDu cells [3] = test: Cell growth of hTR antisense transfected cells; conditions: stably transfected FaDu cells
From the text: Transfection procedures. Transfection of the antisense construct used an IPTG-inducible mammalian expression system, i.e., the LacSwitch II system (Stratagene), which consists of a recombinant vector (i.e., pOPRSVI) and an operator vector (i.e., pCMVLacI). The pOPRSVI vector contains both ampicillin and G418^r resistance genes which facilitate the selection of positive clones from E. Coli and eukaryotic cells. The 8 unique cloning sites of the vector facilitate bi-directional insertion of a cDNA to produce either sense or antisense transcripts. The Lac repressor vector (pCMVLacI) produces the Lac repressor protein, which binds to and inhibits the operator sequence in the pOPRSVI vector and thereby inhibits the expression of the inserted gene. IPTG decreases the binding affinity of the Lac repressor protein to the operator sequence and triggers transcription and expression of the inserted gene. The transfection procedures consisted of stable transfection of FaDu cells with first, the pCMVLacI vector, and then second, the pOPRSVI/MCS vector which contained an antisense or sense hTR fragment. Transfection was performed using Lipofectamine-mediated gene transfer. The selection of the clones expressing the pCMVLacI repressor construct was performed using […] of the antibiotic hygromycin. The selection of the clones expressing the pOPRSVI vector using G418. […]

FaDu cells [4] = test: TALA telomere length in hTR antisense transfected cells
telomerase (hTR) = test: Improved TRAP telomerase activity in hTR antisense transfected cells
Protocol: First, the extraction procedures in the conventional TRAP were not sufficient to completely lyse the cell nuclei and the extraction efficiency varied with the ratio between the volume of the extraction buffer and the volume of cells. […] For the preparation of cell and tissue extracts, cells and tissue were harvested, washed, and stored at −70° C. Cells were then lysed in a SDS-based lysis buffer (10 mM Tris.HCl, pH 7.5, 1 mM MgCl2, 1 mM EGTA, 0.1 mM phenylmethylsulfonyl fluoride, 5 mM β-mercaptoethanol, 0.1% CHAPS, and 10% glycerol), on ice for 10 min. To this mixture, three volumes of CHAPS-based buffer (10 mM Tris-HCl, pH 7.5, 1 mM MgCl2, 1 mM EGTA, 0.1 mM phenylmethylsulfonyl fluoride, 5 mM β-mercaptoethanol, 0.5% CHAPS, and 10% glycerol) were added and kept on ice for 5 min. SDS is a strong detergent which can completely lyse the cell including the nucleus. […] The protein concentration of the supernatant was determined using Bicinchoninic Acid Kit (Sigma, St Louis, Mo.). […] Samples with equal amounts of protein (1-2 μg) were analyzed by TRAP. In this assay, the enzyme activity is measured as the synthesis of repeating telomere hexamers (TTAGGG; SEQ ID NO: 10). […]

With `Cc1cn([C@H]2C=C[C@@H](CO)O2)c(=O)[nH]c1=O` [d4T, 3′-deoxy-2′,3′-didehydrothymidine] the “detachment of cells from the growth surface” value (FaDu cells [1]; d4T 20 μM and 40 μM) was < 8% and the “effect of addition of d4T to paclitaxel on detached cell fraction” value (FaDu cells [1]; d4T 20 or 40 μM) was “significantly enhanced the detached cell fraction”.
In the case of `N.N.[Cl][Pt][Cl]` [cisplatin], the telomerase activity [2] is reported as 50 % of the baseline level.
With `CC(C)S[C@@H]1O[C@H](CO)[C@H](O)[C@H](O)[C@H]1O` [+IPTG] the Doubling time (FaDu cells [3]) was 23 h, the Terminal restriction fragment (FaDu cells [4]) was 2.91 kb and the telomerase activity (telomerase (hTR)) was 98.9 % of control.
